Test results published in ChEMBL document CHEMBL1139821, “Synthesis and antitubercular activity of lipophilic moxifloxacin and gatifloxacin derivatives” (2007).
Converted amounts (≈) assume the structure as drawn.

What follows are compounds tested on Mycobacterium tuberculosis (assay: Antitubercular activity against Mycobacterium tuberculosis H37Rv).
Format: functional

First: CCCCCCNCCNc1c(F)cc2c(=O)c(C(=O)O)cn(C3CC3)c2c1OC
Second: CCCCCCCCNCCNc1c(F)cc2c(=O)c(C(=O)O)cn(C3CC3)c2c1OC
The MIC of the first is 2.5-fold lower: 5 µg/mL (≈ 11.9 µM) for the first, 12.5 µg/mL (≈ 27.9 µM) for the second.

First: CO[C@H]1/C=C/O[C@@]2(C)Oc3c(C)c(O)c4c(O)c(c(/C=N/N5CCN(C)CC5)c(O)c4c3C2=O)NC(=O)/C(C)=C\C=C\[C@H](C)[C@H](O)[C@@H](C)[C@@H](O)[C@@H](C)[C@H](OC(C)=O)[C@@H]1C [RIFAMPIN]
Second: COc1c(N2CCNC(C)C2)c(F)cc2c(=O)c(C(=O)O)cn(C3CC3)c12 (centres undefined) [GATIFLOXACIN]
The MIC of the first is 10-fold higher: 1 µg/mL (≈ 1.22 µM) for the first, 0.1 µg/mL (≈ 0.266 µM) for the second.

Compared with `CCCCCCCCCCCCCCNCCNc1c(F)cc2c(=O)c(C(=O)O)cn(C3CC3)c2c1OC`, `CCCCCCCCCCCCNCCNc1c(F)cc2c(=O)c(C(=O)O)cn(C3CC3)c2c1OC` is 5-fold lower in MIC: 6.25 µg/mL (≈ 11.8 µM) for the first, 1.25 µg/mL (≈ 2.48 µM) for the second.

`CCCCCCCCCCCCCCNCCCNc1c(F)cc2c(=O)c(C(=O)O)cn(C3CC3)c2c1OC` and `CCCCCCCCCCCCNCCCNc1c(F)cc2c(=O)c(C(=O)O)cn(C3CC3)c2c1OC` are the same in MIC: 0.62 µg/mL (≈ 1.14 µM) for the first, 0.62 µg/mL (≈ 1.2 µM) for the second.

First: CCCCC(CC)CNCCCNc1c(F)cc2c(=O)c(C(=O)O)cn(C3CC3)c2c1OC (centres undefined)
Second: CCCCC(CC)CNCCNc1c(F)cc2c(=O)c(C(=O)O)cn(C3CC3)c2c1OC (centres undefined)
The MIC of the first is 4-fold higher: 2.5 µg/mL (≈ 5.42 µM) for the first, 0.62 µg/mL (≈ 1.39 µM) for the second.

Going from `CCCCCCNCCCNc1c(F)cc2c(=O)c(C(=O)O)cn(C3CC3)c2c1OC` to `CCCCCCCCNCCCNc1c(F)cc2c(=O)c(C(=O)O)cn(C3CC3)c2c1OC`, the MIC falls from 50 µg/mL (≈ 115 µM) to 1.25 µg/mL (≈ 2.71 µM) (40-fold).

First: CCCCCCCCCCNCCNc1c(F)cc2c(=O)c(C(=O)O)cn(C3CC3)c2c1OC
Second: CCCCCCCCCCNCCCNc1c(F)cc2c(=O)c(C(=O)O)cn(C3CC3)c2c1OC
The MIC of the first is 2-fold higher: 0.62 µg/mL (≈ 1.3 µM) for the first, 0.31 µg/mL (≈ 0.633 µM) for the second.
